Laboratory results as given in a melting point compilation (Tetko et al.).

Settings: a range is the spread between reports

Structure (SMILES) | melting point
ClC(Cl)(Cl)c1ccccc1 | -8 to -4 °C
Cc1ccc(N)cc1Br | 26 to 27 °C
Cc1c(N)cccc1Cl | 1 to 2 °C
COc1ccc(C(=O)O)cc1O | 252 to 253 °C
CCCCCCCCCCN | 13 to 17 °C
CC1CC=CC1 | -161 °C
CC1(C)CC=CCC1 | -74.4 to -74 °C
CC(=O)CC(=O)Nc1ccccc1 | 85 to 86 °C
COCCOCCOC | -68 to -64 °C
CCCC#CCCC | -103 to -101 °C
Oc1ccc(Cl)cc1 | 41 to 44 °C
O=C(O)c1cccc(Cl)c1[N+](=O)[O-] | 237 to 238 °C
Clc1ccc(SSc2ccc(Cl)cc2)cc1 | 68 to 73 °C
COc1cc(C(C)=O)ccc1O | 114 to 115 °C
CC(=O)OC(OC(C)=O)c1ccc([N+](=O)[O-])o1 | 90 to 91 °C
CC(=O)Oc1ccc(C(=O)O)cc1 | 192 to 194 °C
CC(Br)C(Br)C(=O)O (stereo not given) | 85 to 87 °C
Cc1ccc(N=C=O)cc1N=C=O | 20 to 21 °C
O=C=Nc1ccc(Cl)c(Cl)c1 | 42 to 43 °C
CCCCCCCC(C)C | -75 to -74.6 °C
CCOc1ccc(OCC)cc1 | 70 to 72 °C
CCCCCCCCCCCCCCCCCCC(=O)O | 69 to 69.4 °C
FC(F)F | -160 to -155 °C
O=C(O)c1cccc(C(F)(F)F)c1 | 105 to 106 °C

Structure (SMILES) | melting point
CC(=O)Oc1ccc(-c2ccccc2)cc1 | 88 to 89 °C
c1ccc2c(c1)CCc1ccccc1-2 | 34 to 34.5 °C
CC(=O)Nc1ccccc1 | 114 to 115 °C
Oc1c(Cl)cc(Cl)c2cccnc12 | 180 to 181 °C
CCC(C)(CC)CC | -91 to -90.9 °C
CC(=O)c1ccc(Br)s1 | 94.5 to 95 °C
O=C(O)c1ccccc1C(=O)c1ccccc1 | 127 to 129 °C
c1ccc(-c2ccncc2)nc1 | 61 to 61.5 °C
FC(F)(F)c1ccc(Cl)cc1 | -36 to -33 °C
CCCc1ccc(O)cc1 | 21 to 22 °C
CC=C(C)CCC | -119 to -118 °C
CC(=O)c1ccc(C(F)(F)F)cc1 | 31 to 32 °C
O=[N+]([O-])c1ccc(Br)cc1 | 126 to 127 °C
c1ccc(-c2nnc(-c3ccccn3)nc2-c2ccccc2)cc1 | 191 to 192 °C
CCCCOC(=O)CCC | -92 to -91.5 °C
ClCC1CC1 | -91 to -90.9 °C
BrCC(Br)Br | -29.3 to -29 °C
CCn1ccc(NS(=O)(=O)c2ccc(N)cc2)nc1=O | 166 to 167 °C
O=S(=O)(F)F | -136 °C
Nc1cccc2cnccc12 | 128 to 129 °C
c1ccc2cc3c(cc2c1)-c1cccc2cccc-3c12 | 216 to 217 °C
O=C(O)c1ccccc1-c1ccccc1 | 112 to 115 °C
COC(=O)c1ccc(OC)c(OC)c1 | 59 to 60.8 °C
CC[N+](=O)[O-] | -89.5 to -89 °C

Structure (SMILES) | melting point
O=C(O)c1cc([N+](=O)[O-])ccc1O | 230 to 232 °C
CCCCCCCCCCCCCCCCCCCCCCCCC | 53 to 54 °C
Cc1c(F)c(F)c(F)c(F)c1F | -30 to -29.8 °C
CC(C)c1ccccc1O | 15 to 16 °C
CN(C)C(=O)Nc1cccc(C(F)(F)F)c1 | 164 °C
O=[N+]([O-])c1cc([N+](=O)[O-])c2ccccc2c1 | 147 to 148 °C
c1ccsc1 | -39.4 to -38 °C
FC(F)(F)c1ccc(Cl)c(Cl)c1 | -12.5 to -12 °C
CCCCCCCCCCCCCCCO | 45.5 to 46 °C
Nc1ccc(Cl)cc1Cl | 61 to 63.5 °C
C[Si](C)(C)C#C[Si](C)(C)C | 22 to 26 °C
Sc1ncc[nH]1 | 225 to 230 °C
O=C(O)CC(O)(CC(=O)O)C(=O)O | 153 to 154 °C
C=CCCCCCCCCCO | -3 to -2 °C
Cc1ccc(C(=O)c2ccccc2)cc1C | 46 to 47.5 °C
O=C1C=C(Cl)C(=O)C=C1Cl | 160 to 162 °C
ClC/C=C/CCl | 2 to 3.5 °C
CCCCCCCCCCCBr | -10 to -9 °C
Cc1ccc(S(=O)(=O)NC2CCCCC2)cc1 | 84.5 to 88 °C
N#Cc1cccnc1 | 50 to 51 °C
O=C(O)C(F)(F)C(F)(F)C(=O)O | 115 to 119 °C
COc1ccc(Cl)cc1Cl | 26 to 28.5 °C
N#Cc1cc(Cl)cc(Cl)c1 | 64 to 66 °C
Clc1ccccc1Br | -13 to -12.3 °C

Structure (SMILES) | melting point
O=C(O)C(=O)c1ccccc1 | 65 to 66 °C
COC(=O)c1ccc(N)cc1 | 110 to 114 °C
CCC1(O)CC2CN(CCc3c([nH]c4ccccc34)C(C(=O)OC)(c3cc4c(cc3OC)N(C=O)C3C(O)(C(=O)OC)C(OC(C)=O)C5(CC)C=CCN6CCC43C65)C2)C1 (stereo not given) | 219 °C
CCCCC(CC)COP(=O)(OCC(CC)CCCC)OCC(CC)CCCC (stereo not given) | -74 to -70 °C
Clc1cc(Cl)cc(Cl)c1 | 63.4 to 65 °C
CCCCP(=O)(CCCC)CCCC | 64 to 67 °C
O=C(O)c1ccc(C(=O)O)s1 | 358 to 359 °C
O=C(O)CCCCBr | 39 to 40 °C
CCN(CC)c1ccc2c(C)cc(=O)oc2c1 | 70 to 74 °C
CCc1cc(C)ccc1C | -54 to -53.7 °C
COc1ccc(Cl)c(Cl)c1Cl | 69 to 70 °C
CC1(O)CCCCC1 | 25 to 26 °C
Oc1ccc(N=Nc2ccccc2)cc1 | 154 to 155 °C
CC(CO)(CO)C(=O)O | 189 to 190 °C
CC1=NNC(=O)C1 | 221 to 222 °C
CCCCCCCCCCCCCO | 32.5 to 34 °C
O=S(=O)(Cl)c1ccc(I)cc1 | 82 to 85 °C
N#CCCCCCCC#N | -3.5 to -3 °C
CC(C)=CCN1CCC2(C)c3cc(O)ccc3CC1C2C (stereo not given) | 146 °C
O=[N+]([O-])c1ccc(O)c(Cl)c1 | 106 to 110 °C
O=[N+]([O-])c1ccco1 | 30 to 31 °C
CN(C)c1ccc(C=Nc2ccccc2)cc1 | 96 to 100 °C
c1ccc(COc2ccccc2)cc1 | 39 to 40 °C
c1ccc2c(c1)Cc1ccccc1O2 | 100 to 102 °C

Structure (SMILES) | melting point
c1ccc(C2CCCCC2)cc1 | 5 to 7.3 °C
CCCCCCCCCCCCCCCCCC(=O)OC | 39.1 to 40 °C
Fc1cc(F)c(F)cc1F | 4 to 4.5 °C
CC(CC(=O)O)CC(=O)O | 86 to 87 °C
O=C(O)c1ccccc1-c1ccccc1C(=O)O | 229 to 234 °C
N#Cc1cccc(O)c1 | 79.5 to 82 °C
CCOC(=O)C(C(=O)OCC)C(=O)OCC | 28 to 29 °C
c1cnc2c(c1)ccc1cccnc12 | 117 to 118 °C
Cc1ccc2cccc([N+](=O)[O-])c2n1 | 138 to 140 °C
CC1=CCCCC1 | -120 °C
CC=CC(C)CC (stereo not given) | -126 °C
Oc1c(Br)c(Br)c(Br)c(Br)c1Br | 226 to 230 °C
O=C(O)Cc1sc(-c2ccccc2)nc1-c1ccc(Cl)cc1 | 161 to 162 °C
Nc1ccncc1 | 158 to 159 °C
Cc1ccc([N+](=O)[O-])c(C)c1 | 6 to 9 °C
c1ccc(C(=C(c2ccccc2)c2ccccc2)c2ccccc2)cc1 | 224 to 225 °C
CCOC(C)=O | -84 to -83.6 °C
O=Cc1c[nH]c2ccccc12 | 196 to 197 °C
OCc1ccccc1 | -15.2 to -15 °C
Cc1ccccc1 | -95 to -93 °C
S=C=S | -112 °C
O=C(O)C(F)(F)C(F)(F)C(F)(F)C(F)(F)C(F)(F)C(F)(F)C(F)(F)F | 54.3 to 55.5 °C
COc1ccc(/N=N/c2ccccc2)cc1 | 53 to 56 °C
CC(Cl)Cl | -97 to -96.9 °C

Structure (SMILES) | melting point
COc1cc(C)ccc1O | 5.5 to 6 °C
Nc1cc(C(=O)O)ccc1Cl | 214 to 216 °C
CC1(O)CCC(C(C)(C)O)CC1 (stereo not given) | 158 °C
Cc1cccc(C(C)C)c1 | -64 to -63.7 °C
Cc1ccc2cccnc2c1 | 36.5 to 39 °C
OC/C=C\CO | 4 to 7 °C
CCOC(=O)Cc1ccccc1 | -29.4 to -29 °C
C=CCCC(=O)O | -22.5 to -22 °C
CCOC(=O)c1cccnc1 | 8.5 to 9 °C
CCCCCCc1ccc(O)cc1O | 65 to 68 °C
N#CCc1ccc(Br)cc1 | 47 to 48 °C
O=C(O)Cc1ccccc1O | 146 to 149 °C
Brc1cnc2ccccc2c1 | 13.3 to 14 °C
CCC(Br)CBr (stereo not given) | -65.4 to -65 °C
Nc1ccccc1C=O | 38 to 39 °C
CCCC(C)(C)C(C)C | -117 °C
C=C(C)c1ccc(C(=C)C)cc1 | 63.5 to 66 °C
CN1C(=O)C(=O)c2ccccc21 | 131 to 132 °C
CCCCCC1CCCCC1 | -58 to -57.5 °C
O=C(O)c1ccccc1Br | 146 to 150 °C
CC#CC(=O)O | 77 to 78 °C
ClC1=C(Cl)C2(Cl)C3C(Cl)C=CC3C1(Cl)C2(Cl)Cl (stereo not given) | 95 to 95.5 °C
CCC1CCCC1C (stereo not given) | -106 °C
Cc1ccccc1CCl | -2 to 2 °C

Structure (SMILES) | melting point
O=[N+]([O-])c1c(O)cccc1O | 82 to 83 °C
O=C(O)COc1ccccc1C(=O)O | 189 to 191 °C
ClCCOCCOCCCl | -32 to -31.5 °C
CCCCCCCCC#CCCCCCCCC(=O)O | 45 to 48 °C
N#CI | 146 to 147 °C
COc1cc(-c2ccc(N)c(OC)c2)ccc1N | 136 to 137 °C
O=[N+]([O-])c1ccc(Oc2ccc(C(F)(F)F)cc2[N+](=O)[O-])cc1 | 90 to 94 °C
O=C(O)CC(O)C(=O)O (stereo not given) | 130 to 132 °C
ClC1=C(Cl)C2(Cl)C3C(Cl)C(Cl)CC3C1(Cl)C2(Cl)Cl (stereo not given) | 104 to 106 °C
Cc1c(O)cccc1O | 118 to 120 °C
O=[N+]([O-])c1cc(F)ccc1O | 73 to 75 °C
CCCCCCCI | -48.2 to -48 °C
COC(=O)c1ccc(C)cc1 | 33.2 to 37 °C
Cc1cc(C)cc([N+](=O)[O-])c1 | 71 to 75 °C
Cc1ccc(C)c(N)c1 | 12 to 15.5 °C
OC/C=C/c1ccccc1 | 30 to 34 °C
C=CC(=O)NC(C)(C)C | 128 to 129 °C
O=C(O)c1cccc([N+](=O)[O-])c1Cl | 181 to 184 °C
O=C1CCO1 | -34 to -33.4 °C
O=c1cc(CO)occ1O | 154 °C
CCCCCCCCCCCCCCCCCCCCC | 39 to 41 °C
